Test results reported in the OPERA property sets (Mansouri et al. 2018).

Compound	logP
NS(=O)(=O)c1ccc(-c2ccccc2)cc1	2.24
CCCCOc1ccc(S(N)(=O)=O)cc1	2.05
CCCCCCOc1ccc(S(N)(=O)=O)cc1[N+](=O)[O-]	2.99
NC(=O)c1cccc(S(N)(=O)=O)c1	-0.84
CCCCOc1cccc(S(N)(=O)=O)c1	2.06
NS(=O)(=O)c1cccc(I)c1	1.58
NS(=O)(=O)c1cccc(Br)c1	1.35
CS(=O)(=O)Nc1ccc(S(N)(=O)=O)cc1	-0.4
COc1cccc(S(N)(=O)=O)c1	0.53
N#Cc1cccc(S(N)(=O)=O)c1	0.24
CC(=O)c1cccc(S(N)(=O)=O)c1	0.21
CC(=O)Nc1ccc(S(N)(=O)=O)cc1	-0.04
NC(=O)c1ccc(S(N)(=O)=O)cc1	-0.83
